In patent US5129951A, “Aromatic aldehydes and alcohols as potato tuber sprout inhibitors” (priority 1991, dated 1992):
Entries after “also recorded” stand apart in the source; their conditions may differ. Read-outs that look alike come from different tables or passages of the source.

How the values were obtained:
potato tubers [1] = assay: Sprout inhibition of tubers exposed to compounds in headspace gas for 7 days (Example 1); type: in vivo, Solanum tuberosum L. cv `Norchip`; settings: 7 days in saturated headspace gas, 25° C.; for % Eyes Sprouted: dark, control 100, LSD (0.05) 12
potato tubers [2] = assay: Tuber texture and quality 14 days after direct application of aromatic compounds (Example 3)
fungi [3] = assay: Fungal growth on tubers exposed to compounds in headspace gas for 7 days (Example 1); type: in vivo; settings: 7 days in saturated headspace gas, 25° C.; for Fungal Growth: control ++; on Fungal growth: key: -: no fungi visible; +: = some fungi; ++: heavy fungal growth
Description: (control flasks lacked any compounds).

[4] = Theoretical saturated headspace concentration calculated from known vapor pressures; type: physicochemical; settings: calculated from known vapor pressures by Ideal Gas Law
Experimental: Because these compounds were difficult to quantitate by gas chromatography at the concentration levels in saturated headspaces, theoretical saturated concentrations were calculated by converting known vapor pressures of each compound at 25° C. to molar concentrations using the Ideal Gas Law, […], where n/V is the molar concentration, P is the partial pressure (atm), R is the Ideal Gas constant (0.0821 l atm/mol ° K.), and T is the temperature (° K.).

potato tubers [5] = assay: Tuber sprouting 14 days after direct application of aromatic compounds (Example 3); type: in vivo, Solanum tuberosum L. cv `Norchip`; settings: for % Eyes Sprouted: 25° C., control 98, LSD (0.05) 14
potato tubers [6] = assay: Tuber texture after removal from exposure to volatilized aromatics (Example 2); type: in vivo, Solanum tuberosum L. cv `Norchip`
Experimental: (§1) Each treatment consisted of placing the tubers in sealed 9.2 l flasks containing excess levels of the treatment compounds at 25° C. as in Example 1. Three tubers were then removed from each treatment after 1, 2, 4, 7, and 10 days, and placed in flasks containing fresh humidified air (free of any additional volatilized compounds) at 25° C. Control tubers were placed in sealed flasks lacking any added compounds and three were removed after 1 and 10 days. Fourteen days after removal from the sealed flasks containing treatment compounds, all tubers were examined for percentage of eyes sprouted, tuber texture, and fungal growth. Each treatment was replicated once and each experiment was repeated once.

potato tubers [7] = assay: Tuber sprouting after removal from exposure to volatilized aromatics for 1, 2, 4, 7 or 10 days (Example 2); type: in vivo, Solanum tuberosum L. cv `Norchip`; settings: exposure for 10 days, 75 days after removal
fungi [8] = assay: Fungal growth on tubers after removal from exposure to volatilized aromatics (Example 2); type: in vivo; settings: 14 days after removal
Experimental: as §1

potato tubers [9] = assay: Tuber sprouting after removal from exposure to volatilized aromatics for 1, 2, 4, 7 or 10 days (Example 2); type: in vivo, Solanum tuberosum L. cv `Norchip`; settings: 14 days after removal; for % Eyes Sprouted: 25° C., LSD (0.05) 24
Experimental: as §1

fungi [10] = assay: Fungal growth 14 days after direct application of aromatic compounds (Example 3); type: in vivo
potato tubers [11] = assay: Tuber texture/quality after exposure to compounds in headspace gas for 7 days (Example 1); settings: 7 days in saturated headspace gas, 25° C.
[12] = cited from earlier work; for Temperature at Which Vapor Pressure Equals 1 mm Hg: vapor pressure 1 mm Hg
plants = settings: Putnam and Tang; cited from earlier work
potato tubers [13] = settings: in vivo
potato tubers [14] = settings: in vivo; remark: listed apart in the source

| Structure (SMILES) | effect on tuber sprouting (potato tubers [1]) | % Eyes Sprouted (potato tubers [1]) [%] | effect on fungal growth (fungi [3]) | Fungal Growth (fungi [3]) | Concentration of Saturated Headspace at 25° C. [4] [µM] | % Eyes Sprouted (potato tubers [5]; 1% emulsion (dip)) [%] | % Eyes Sprouted (potato tubers [5]; 10% emulsion (dip)) [%] | Fungal Growth (fungi [8]; 7 days exposure) | Fungal Growth (fungi [8]; 10 days exposure, control +) | % Eyes Sprouted (potato tubers [9]; 1 day exposure, control 96) [%] | % Eyes Sprouted (potato tubers [9]; 2 days exposure) [%] | % Eyes Sprouted (potato tubers [9]; 4 days exposure) [%] | % Eyes Sprouted (potato tubers [9]; 7 days exposure) [%] | % Eyes Sprouted (potato tubers [9]; 10 days exposure, control 100) [%] | inhibition of tuber sprouting (potato tubers [9]; exposure for 7 or fewer days) | inhibition of tuber sprouting (potato tubers [9]; exposure for 10 days) | Fungal Growth (fungi [10]; 10% emulsion (dip), control +) | tuber condition (potato tubers [11]) | Temperature at Which Vapor Pressure Equals 1 mm Hg [12] [°C] | Solubility in Water at 25° C. [12] | other results |
| --- | --- | --- | --- | --- | --- | --- | --- | --- | --- | --- | --- | --- | --- | --- | --- | --- | --- | --- | --- | --- | --- |
| O=Cc1ccccc1 [Benzaldehyde] | completely inhibited sprouting | 0 | prevented any visible fungal growth | - | 48 | 43 | 0 | - | - | 88 | 42 | 14 | 2 | 0 | did not completely inhibit sprouting | completely inhibited sprouting | ++ | firm and appeared healthy | 26.2 | sl. soluble | tuber condition (potato tubers [2]; 10% emulsion): remained hard, with no necrosis or surface pitting; Tuber Texture (potato tubers [2]; 100% (pure, sprayed), control SS): S,N; inhibition of sprouting (potato tubers [5]; 10% emulsion): completely inhibited sprouting without damaging the potato tubers; % Eyes Sprouted (potato tubers [5]; 100% (pure, sprayed)): 0%; tuber firmness (potato tubers [6]; 1 day treatment, 14 days after removal): slightly soft; sprouting (potato tubers [7]): remained unsprouted; Fungal Growth (fungi [8]; 1 day exposure, control +): -; Fungal Growth (fungi [8]; 2 days exposure): -; Fungal Growth (fungi [8]; 4 days exposure): -; Fungal Growth (fungi [10]; 10% emulsion): heavily covered with fungal growth; Fungal Growth (fungi [10]; 100% (pure, sprayed), control +): ++ |
| O=C(O)c1ccccc1 [Benzoic acid] | no significant effect on tuber sprouting; also recorded: little or no inhibition of sprouting | 98 | present to some extent | + | 0.1 |  |  |  |  |  |  |  |  |  |  |  |  | soft to the touch | 96.0 |  | reported allelopathy (plants): allelopathic |
| OCC=Cc1ccccc1 [Cinnamyl alcohol] | no significant effect on tuber sprouting | 91 | present to some extent | + | 2.4 |  |  |  |  |  |  |  |  |  |  |  |  |  |  | soluble | tuber condition (potato tubers [13]): slightly soft |
| CC=Cc1ccc(O)c(OC)c1 [Isoeugenol] | no significant effect on tuber sprouting | 89 | especially heavy growth | ++ | 1.3 |  |  |  |  |  |  |  |  |  |  |  |  |  |  |  | tuber condition (potato tubers [13]): remained firm |
| Cc1ccc(C(C)C)c(O)c1 [Thymol] | completely inhibited sprouting | 0 | prevented any visible fungal growth | - | 2.9 | 0 | 0 | - | - | 83 | 60 | 44 | 6 | 0 | did not completely inhibit sprouting | completely inhibited sprouting | - | firm and appeared healthy |  |  | inhibition of sprouting (potato tubers [5]; 1% emulsion): suppressed sprouting; tuber firmness (potato tubers [6]; in vivo): slightly soft; Fungal Growth (fungi [10]; 1% emulsion (dip), control +): -; tuber condition (potato tubers [14]): large pitted areas on the tuber surface near each eye |
| COc1cc(C=O)ccc1O [Vanillin] | only slightly suppressed sprouting; also recorded: little or no inhibition of sprouting | 87 | present to some extent | + | 0.1 |  |  |  |  |  |  |  |  |  |  |  |  |  | 107.0 | sl. soluble | reported allelopathy (plants): allelopathic |
